Results taken from paper PMC12028158, “Synthesis and In Vitro Evaluation of the Anticancer Effect of Novel Phosphonium Vindoline Derivatives” (International Journal of Molecular Sciences, 2025).

Key:
Assay type in all cases: cell-based
MOLT-4 = assay: NCI60 five-dose screen; conditions: Homo sapiens, MOLT-4
RPMI-8226 = assay: NCI60 five-dose screen; conditions: Homo sapiens, RPMI-8226
NCI-H522 [1] = assay: NCI60 five-dose screen; conditions: Homo sapiens, NCI-H522
HCC-2998 = assay: NCI60 five-dose screen; conditions: Homo sapiens, HCC 2998
HCT-116 = assay: NCI60 five-dose screen; conditions: Homo sapiens, HCT-116
HCT-15 [2] = assay: NCI60 five-dose screen; conditions: Homo sapiens, HCT-15
KM12 = assay: NCI60 five-dose screen; conditions: Homo sapiens, KM12
SF-539 = assay: NCI60 five-dose screen; conditions: Homo sapiens, SF-539
LOX IMVI [3] = assay: NCI60 five-dose screen; conditions: Homo sapiens
MALME-3M = assay: NCI60 five-dose screen; conditions: Homo sapiens, Malme-3M
SK-MEL-28 = assay: NCI60 five-dose screen; conditions: Homo sapiens, SK-MEL-28
SK-MEL-5 [4] = assay: NCI60 five-dose screen; conditions: Homo sapiens, SK-MEL-5
UACC-257 [5] = assay: NCI60 five-dose screen; conditions: Homo sapiens, UACC-257
IGROV1 [6] = assay: NCI60 five-dose screen; conditions: Homo sapiens, IGROV-1
786-0 = assay: NCI60 five-dose screen; conditions: Homo sapiens, 786-0
CAKI-1 [7] = assay: NCI60 five-dose screen; conditions: Homo sapiens, CAKI-1
RXF 393 = assay: NCI60 five-dose screen; conditions: Homo sapiens, RXF 393
MCF7 [8] = assay: NCI60 five-dose screen; conditions: Homo sapiens, MCF7
MDA-MB-468 = assay: NCI60 five-dose screen; conditions: Homo sapiens, MDA-MB-468
Leukemia panel = assay: NCI60 five-dose screen, panel mean; conditions: Homo sapiens, read-out: Mean GI50
[9] = system: Non-small Cell Lung Cancer panel; assay: NCI60 five-dose screen, panel mean; conditions: Homo sapiens, read-out: Mean GI50
Colon Cancer panel = assay: NCI60 five-dose screen, panel mean; conditions: Homo sapiens, read-out: Mean GI50
Melanoma panel = assay: NCI60 five-dose screen, panel mean; conditions: Homo sapiens, read-out: Mean GI50
Ovarian Cancer panel = assay: NCI60 five-dose screen, panel mean; conditions: Homo sapiens, read-out: Mean GI50
Breast Cancer panel = assay: NCI60 five-dose screen, panel mean; conditions: Homo sapiens, read-out: Mean GI50
CCRF-CEM = assay: NCI60 one-dose screen; conditions: Homo sapiens, read-out: Growth percent
A549/ATCC = assay: NCI60 one-dose screen; conditions: Homo sapiens, A549, read-out: Growth percent
NCI-H23 = assay: NCI60 one-dose screen; conditions: Homo sapiens, NCI-H23, read-out: Growth percent
NCI-H322M = assay: NCI60 one-dose screen; conditions: Homo sapiens, read-out: Growth percent
NCI-H460 = assay: NCI60 one-dose screen; conditions: Homo sapiens, NCI-H460, read-out: Growth percent
NCI-H522 [10] = assay: NCI60 one-dose screen; conditions: Homo sapiens, NCI-H522, read-out: Growth percent
HCT-15 [11] = assay: NCI60 one-dose screen; conditions: Homo sapiens, HCT-15, read-out: Growth percent
SNB-19 = assay: NCI60 one-dose screen; conditions: Homo sapiens, SNB-19, read-out: Growth percent
SNB-75 = assay: NCI60 one-dose screen; conditions: Homo sapiens, SNB-75, read-out: Growth percent
LOX IMVI [12] = assay: NCI60 one-dose screen; conditions: Homo sapiens, read-out: Growth percent
M14 = assay: NCI60 one-dose screen; conditions: Homo sapiens, M14, read-out: Growth percent
SK-MEL-5 [13] = assay: NCI60 one-dose screen; conditions: Homo sapiens, SK-MEL-5, read-out: Growth percent
UACC-257 [14] = assay: NCI60 one-dose screen; conditions: Homo sapiens, UACC-257, read-out: Growth percent
IGROV1 [15] = assay: NCI60 one-dose screen; conditions: Homo sapiens, IGROV-1, read-out: Growth percent
OVCAR-3 = assay: NCI60 one-dose screen; conditions: Homo sapiens, OVCAR-3, read-out: Growth percent
OVCAR-4 = assay: NCI60 one-dose screen; conditions: Homo sapiens, OVCAR-4, read-out: Growth percent
OVCAR-5 = assay: NCI60 one-dose screen; conditions: Homo sapiens, OVCAR-5, read-out: Growth percent
CAKI-1 [16] = assay: NCI60 one-dose screen; conditions: Homo sapiens, CAKI-1, read-out: Growth percent
TK-10 = assay: NCI60 one-dose screen; conditions: Homo sapiens, TK-10, read-out: Growth percent
UO-31 = assay: NCI60 one-dose screen; conditions: Homo sapiens, UO-31, read-out: Growth percent
MCF7 [17] = assay: NCI60 one-dose screen; conditions: Homo sapiens, MCF7, read-out: Growth percent
T-47D = assay: NCI60 one-dose screen; conditions: Homo sapiens, T47D, read-out: Growth percent

## CC[C@]12C=CCN3CC[C@@]4(c5ccc(OC)cc5N(C)[C@H]4[C@@](O)(C(=O)OC)[C@@H]1OC(=O)CCC[P+](C1CCCCC1)(C1CCCCC1)C1CCCCC1)[C@@H]32 [9d]
MOLT-4
  GI50: 2160 nM
RPMI-8226
  GI50: 383 nM
NCI-H522 [1]
  GI50: 6880 nM
HCC-2998
  GI50: 1700 nM
HCT-116
  GI50: 2850 nM
HCT-15 [2]
  GI50: 15300 nM
KM12
  GI50: 1630 nM
SF-539
  GI50: 2940 nM
LOX IMVI [3]
  GI50: 2880 nM
MALME-3M
  GI50: 1460 nM
SK-MEL-28
  GI50: 1080 nM
SK-MEL-5 [4]
  GI50: 1760 nM
UACC-257 [5]
  GI50: 1260 nM
IGROV1 [6]
  GI50: 1390 nM
786-0
  GI50: 4450 nM
CAKI-1 [7]
  GI50: 16400 nM
RXF 393
  GI50: 1470 nM
MCF7 [8]
  GI50: 1190 nM
MDA-MB-468
  GI50: 313 nM
Leukemia panel
  GI50: 1200 nM
[9]
  GI50: 3670 nM
Colon Cancer panel
  GI50: 3820 nM
Melanoma panel
  GI50: 1700 nM
Ovarian Cancer panel
  GI50: 7120 nM
Breast Cancer panel
  GI50: 1540 nM
CCRF-CEM
  activity at 10 µM: -40.9%
A549/ATCC
  activity at 10 µM: 14.1%
NCI-H23
  activity at 10 µM: -4.73%
NCI-H322M
  activity at 10 µM: 24.5%
NCI-H460
  activity at 10 µM: 4.64%
NCI-H522 [10]
  activity at 10 µM: -82.2%
HCT-15 [11]
  activity at 10 µM: 76.6%
SNB-19
  activity at 10 µM: -60%
SNB-75
  activity at 10 µM: -61.4%
LOX IMVI [12]
  activity at 10 µM: -96%
M14
  activity at 10 µM: -78%
SK-MEL-5 [13]
  activity at 10 µM: -98.4%
UACC-257 [14]
  activity at 10 µM: -80.9%
IGROV1 [15]
  activity at 10 µM: -86%
OVCAR-3
  activity at 10 µM: -48.6%
OVCAR-4
  activity at 10 µM: 17.7%
OVCAR-5
  activity at 10 µM: 11%
CAKI-1 [16]
  activity at 10 µM: -8.49%
TK-10
  activity at 10 µM: -48.6%
UO-31
  activity at 10 µM: 76.8%
MCF7 [17]
  activity at 10 µM: -72.2%
T-47D
  activity at 10 µM: -1.81%

## CC[C@]12C=CCN3CC[C@@]4(c5ccc(OC)cc5N(C)[C@H]4[C@@](O)(C(=O)OC)[C@@H]1OC(=O)CCC[P+](c1ccccc1)(c1ccccc1)c1ccccc1OC)[C@@H]32 [9f]
MOLT-4
  GI50: 419 nM
RPMI-8226
  GI50: 106 nM
NCI-H522 [1]
  GI50: 339 nM
HCC-2998
  GI50: 325 nM
HCT-116
  GI50: 383 nM
HCT-15 [2]
  GI50: 9070 nM
KM12
  GI50: 331 nM
SF-539
  GI50: 434 nM
LOX IMVI [3]
  GI50: 429 nM
MALME-3M
  GI50: 295 nM
SK-MEL-28
  GI50: 506 nM
SK-MEL-5 [4]
  GI50: 777 nM
UACC-257 [5]
  GI50: 406 nM
IGROV1 [6]
  GI50: 510 nM
786-0
  GI50: 1980 nM
CAKI-1 [7]
  GI50: 1900 nM
RXF 393
  GI50: 247 nM
MCF7 [8]
  GI50: 288 nM
MDA-MB-468
  GI50: 129 nM
Leukemia panel
  GI50: 220 nM
[9]
  GI50: 1050 nM
Colon Cancer panel
  GI50: 1610 nM
Melanoma panel
  GI50: 490 nM
Ovarian Cancer panel
  GI50: 4200 nM
Breast Cancer panel
  GI50: 310 nM
CCRF-CEM
  activity at 10 µM: 0.92%
A549/ATCC
  activity at 10 µM: 20.1%
NCI-H23
  activity at 10 µM: -57.8%
NCI-H322M
  activity at 10 µM: 25.9%
NCI-H460
  activity at 10 µM: -26.9%
NCI-H522 [10]
  activity at 10 µM: -70.4%
HCT-15 [11]
  activity at 10 µM: 30.7%
SNB-19
  activity at 10 µM: -95.2%
SNB-75
  activity at 10 µM: -79.5%
LOX IMVI [12]
  activity at 10 µM: -95.7%
M14
  activity at 10 µM: -82.9%
SK-MEL-5 [13]
  activity at 10 µM: -98.4%
UACC-257 [14]
  activity at 10 µM: -73%
IGROV1 [15]
  activity at 10 µM: -43.2%
OVCAR-3
  activity at 10 µM: -75%
OVCAR-4
  activity at 10 µM: -11.1%
OVCAR-5
  activity at 10 µM: 10.6%
CAKI-1 [16]
  activity at 10 µM: -40.2%
TK-10
  activity at 10 µM: -88.5%
UO-31
  activity at 10 µM: 44%
MCF7 [17]
  activity at 10 µM: -68.1%
T-47D
  activity at 10 µM: -25%
